Data on one compound can be found in paper PMC7132963, “NTP42, a novel antagonist of the thromboxane receptor, attenuates experimentally induced pulmonary arterial hypertension” (BMC Pulmonary Medicine, 2020).

In this assay the target is T1, TPβ isoform of the human T Prostanoid receptor (thromboxane receptor, TP) (Homo sapiens, UniProt P21731).
T1 construct: gene TBXA2R; TPβ isoform, stably over-expressed in HEK 293 cells (HEK.TPβ line)
T1 sequence (P21731 1-328 limits assumed): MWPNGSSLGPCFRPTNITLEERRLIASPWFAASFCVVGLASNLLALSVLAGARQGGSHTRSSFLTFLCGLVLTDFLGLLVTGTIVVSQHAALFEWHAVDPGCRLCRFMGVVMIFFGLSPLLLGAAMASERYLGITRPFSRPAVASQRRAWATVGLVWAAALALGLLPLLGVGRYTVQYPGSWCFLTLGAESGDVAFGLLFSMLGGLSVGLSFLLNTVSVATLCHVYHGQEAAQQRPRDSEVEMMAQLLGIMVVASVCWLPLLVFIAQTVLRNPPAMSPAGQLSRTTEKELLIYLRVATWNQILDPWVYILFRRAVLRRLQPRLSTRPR
Put plainly: antagonism of U46619-stimulated intracellular calcium mobilization in HEK.TPβ cells (also vs 8-iso-PGF2α, IC50 […]). The format is cell-based. (In general: Calcium assays in cells follow changes in intracellular calcium, usually with a dye or a luminescent sensor.)

The structures appear in SMILES notation.

As a reminder, the IC50 is the midpoint of a concentration-inhibition curve.

With `CC(C)(C)NC(=O)NS(=O)(=O)c1cc(C#N)ccc1Oc1cccc(-c2ccc(OC(F)F)cc2)c1` [NTP42], the IC50 was determined as 8.86 ± 3.07 nM.
